# Reference: patent publication US9115127B2 (AMGEN INC., priority 2010, dated 2015)
# Structures can show the parent of a compound that is named as a salt.
# Molecular target: T1, wild-type human ALK (cytoplasmic domain, amino acids 1058-1620, N-terminal GST fusion) (Homo sapiens, UniProt Q9UM73)
# T1 construct: The cytoplasmic domain (amino acids 1058-1620) of wild-type human ALK; GST (N); made in house; host or cells: SF9 insect cells
# Assay: ALK Inhibition in Enzyme Assay (Lance TR-FRET kinase assay)
# Type: biochemical
# In short: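 Purified enzyme phosphorylated a biotinylated peptide substrate for 90 minutes at room temperature. Reactions were stopped with 20 mM EDTA in 50 mM Tris (pH 7.5), 100 mM NaCl, 0.05% BSA, 0.1% Tween-20. Phosphopeptide was detected by TR-FRET with SA-APC and Eu-W1024 anti-phosphotyrosine antibody PT66, excitation 320 nm.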
# T1 sequence (Q9UM73 1058-1620): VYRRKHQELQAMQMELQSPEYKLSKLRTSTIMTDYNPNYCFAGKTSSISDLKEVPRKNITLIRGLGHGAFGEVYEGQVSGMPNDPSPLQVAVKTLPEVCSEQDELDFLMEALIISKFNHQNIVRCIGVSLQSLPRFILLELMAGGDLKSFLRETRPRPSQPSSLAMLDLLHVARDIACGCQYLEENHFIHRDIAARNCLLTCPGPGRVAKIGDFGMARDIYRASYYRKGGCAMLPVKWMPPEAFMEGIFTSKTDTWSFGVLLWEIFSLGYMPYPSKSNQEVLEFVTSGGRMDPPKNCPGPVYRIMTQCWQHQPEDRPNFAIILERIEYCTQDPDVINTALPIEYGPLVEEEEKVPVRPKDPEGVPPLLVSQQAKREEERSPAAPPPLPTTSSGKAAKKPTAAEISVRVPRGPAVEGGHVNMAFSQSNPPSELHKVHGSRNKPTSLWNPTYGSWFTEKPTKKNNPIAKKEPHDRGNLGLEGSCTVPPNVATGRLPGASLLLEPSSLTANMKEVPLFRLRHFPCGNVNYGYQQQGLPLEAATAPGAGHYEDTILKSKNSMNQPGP
row,Compound,IC50 [nM]
1,"CC(C)(CO)NC(=O)[C@H]1CC[C@@H](n2/c(=N/C(=O)c3ccc(F)cc3)[nH]c3ccc(CN4CCOCC4)cc32)CC1 [Example 199, (E)-4-Fluoro-N-(1-(cis-4-(1-hydroxy-2-methylpropan-2-ylcarbamoyl)cyclohexyl)-6-(morpholinomethyl)-1H-benzo[d]imidazol-2(3H)-ylidene)benzamide]",< 50
2,"C[C@H](CO)NC(=O)[C@H]1CC[C@@H](n2/c(=N/C(=O)c3ccc(F)cc3)[nH]c3ccc(CN4CCOCC4)cc32)CC1 [Example 200, (E)-4-Fluoro-N-(1-(cis-4-((R)-1-hydroxypropan-2-ylcarbamoyl)cyclohexyl)-6-(morpholinomethyl)-1H-benzo[d]imidazol-2(3H)-ylidene)benzamide]",< 50
3,"O=C(/N=c1\[nH]c2ccc(CN3CCOCC3)cc2n1[C@H]1CC[C@@H](C(=O)NCCO)CC1)c1ccc(F)cc1 [Example 201, (E)-4-Fluoro-N-(1-(cis-4-(2-hydroxyethylcarbamoyl)cyclohexyl)-6-(morpholinomethyl)-1H-benzo[d]imidazol-2(3H)-ylidene)benzamide]",< 50
4,"O=C(/N=c1\[nH]c2ccc(CN3CCOCC3)cc2n1[C@H]1CC[C@@H](C(=O)N2CCOCC2)CC1)c1ccc(F)cc1 [Example 202, (E)-4-Fluoro-N-(1-(cis-4-(morpholine-4-carbonyl)cyclohexyl)-6-(morpholinomethyl)-1H-benzo[d]imidazol-2(3H)-ylidene)benzamide]",100 to 1000
5,"CN1CCN(C(=O)[C@H]2CC[C@@H](n3/c(=N/C(=O)c4ccc(F)cc4)[nH]c4ccc(CN5CCOCC5)cc43)CC2)CC1 [Example 203, (E)-4-Fluoro-N-(1-(cis-4-(4-methylpiperazine-1-carbonyl)cyclohexyl)-6-(morpholinomethyl)-1H-benzo[d]imidazol-2(3H)-ylidene)benzamide]",100 to 1000
6,"O=C(/N=c1\[nH]c2ccc(CN3CCOCC3)cc2n1[C@H]1CC[C@@H](C(=O)N2CCNCC2)CC1)c1ccc(F)cc1 [Example 204, (E)-4-Fluoro-N-(6-(morpholinomethyl)-1-(cis-4-(piperazine-1-carbonyl)cyclohexyl)-1H-benzo[d]imidazol-2(3H)-ylidene)benzamide]",< 50
7,"NC(=O)[C@H]1CC[C@@H](n2/c(=N/C(=O)c3ccc(F)cc3)[nH]c3ccc(CN4CCOCC4)cc32)CC1 [Example 205, (E)-N-(1-(cis-4-Carbamoylcyclohexyl)-6-(morpholinomethyl)-1H-benzo[d]imidazol-2(3H)-ylidene)-4-fluorobenzamide]",< 50
8,"CC(C)(O)CNC(=O)[C@H]1CC[C@@H](n2/c(=N/C(=O)c3ccc(F)cc3)[nH]c3ccc(CN4CCOCC4)cc32)CC1 [Example 206, (E)-4-Fluoro-N-(1-(cis-4-(2-hydroxy-2-methylpropylcarbamoyl)-cyclohexyl)-6-(morpholinomethyl)-1H-benzo[d]imidazol-2(3H)-ylidene)benzamide]",50 to 100
9,"O=C(/N=c1\[nH]c2ccc(CN3CCOCC3)cc2n1[C@H]1CC[C@@H](C(=O)NO)CC1)c1ccc(F)cc1 [Example 207, (E)-4-Fluoro-N-(1-(cis-4-(hydroxycarbamoyl)cyclohexyl)-6-(morpholinomethyl)-1H-benzo[d]imidazol-2(3H)-ylidene)benzamide]",50 to 100
10,"CONC(=O)[C@H]1CC[C@@H](n2/c(=N/C(=O)c3ccc(F)cc3)[nH]c3ccc(CN4CCOCC4)cc32)CC1 [Example 208, (E)-4-Fluoro-N-(1-(cis-4-(methoxycarbamoyl)cyclohexyl)-6-(morpholinomethyl)-1H-benzo[d]imidazol-2(3H)-ylidene)benzamide]",< 50
11,"COC(=O)[C@H]1CC[C@@H](n2/c(=N/C(=O)c3ccc(F)cc3)[nH]c3ccc(CN4CCC(C(C)(C)O)CC4)cc32)CC1 [Example 209, cis-Methyl 4-((E)-2-(4-fluorobenzoylimino)-6-((4-(2-hydroxypropan-2-yl)piperidin-1-yl)methyl)-2,3-dihydro-1H-benzo[d]imidazol-1-yl)cyclohexanecarboxylate]",< 50
12,"CC(C)(O)C1CCN(Cc2ccc3[nH]/c(=N\C(=O)c4ccc(F)cc4)n([C@H]4CC[C@@H](C(=O)O)CC4)c3c2)CC1 [Example 210, cis-4-((E)-2-(4-Fluorobenzoylimino)-6-((4-(2-hydroxypropan-2-yl)piperidin-1-yl)methyl)-2,3-dihydro-1H-benzo[d]imidazol-1-yl)cyclohexanecarboxylic acid]",100 to 1000
13,"CC(C)(O)C1CCN(Cc2ccc3[nH]/c(=N\C(=O)c4ccc(F)cc4)n([C@H]4CC[C@@H](C(=O)N5CCNCC5)CC4)c3c2)CC1 [Example 211, (E)-4-Fluoro-N-(6-((4-(2-hydroxypropan-2-yl)piperidin-1-yl)methyl)-1-(cis-4-(piperazine-1-carbonyl)cyclohexyl)-1H-benzo[d]imidazol-2(3H)-ylidene)benzamide]",< 50
14,"CC(C)(O)C1CCN(Cc2ccc3[nH]/c(=N\C(=O)c4ccc(F)cc4)n([C@H]4CC[C@@H](C(N)=O)CC4)c3c2)CC1 [Example 212, (E)-N-(1-(cis-4-Carbamoylcyclohexyl)-6-((4-(2-hydroxypropan-2-yl)piperidin-1-yl)methyl)-1H-benzo[d]imidazol-2(3H)-ylidene)-4-fluorobenzamide]",< 50
15,"CONC(=O)[C@H]1CC[C@@H](n2/c(=N/C(=O)c3ccc(F)cc3)[nH]c3ccc(CN4CCC(C(C)(C)O)CC4)cc32)CC1 [Example 213, (E)-4-Fluoro-N-(6-((4-(2-hydroxypropan-2-yl)piperidin-1-yl)methyl)-1-(cis-4-(methoxycarbamoyl)cyclohexyl)-1H-benzo[d]imidazol-2(3H)-ylidene)benzamide]",< 50
16,"CC(C)(CO)NC(=O)[C@H]1CC[C@@H](n2/c(=N/C(=O)c3ccc(F)cc3)[nH]c3ccc(CN4CCC(C(C)(C)O)CC4)cc32)CC1 [Example 214, (E)-4-Fluoro-N-(1-(cis-4-(1-hydroxy-2-methylpropan-2-ylcarbamoyl)cyclohexyl)-6-((4-(2-hydroxypropan-2-yl)piperidin-1-yl)methyl)-1H-benzo[d]imidazol-2(3H)-ylidene)benzamide]",< 50
17,"CC(C)(C)NC(=O)[C@H]1CC[C@@H](n2/c(=N/C(=O)c3ccc(F)cc3)[nH]c3ccc(CN4CCC(C(C)(C)O)CC4)cc32)CC1 [Example 215, (E)-N-(1-(cis-4-(tert-Butylcarbamoyl)cyclohexyl)-6-((4-(2-hydroxypropan-2-yl)piperidin-1-yl)methyl)-1H-benzo[d]imidazol-2(3H)-ylidene)-4-fluorobenzamide]",< 50
18,"CC(C)(O)C1CCN(Cc2ccc3[nH]/c(=N\C(=O)c4ccc(F)cc4)n([C@H]4CC[C@@H](C(=O)N5CCCCC5)CC4)c3c2)CC1 [Example 216, (E)-4-Fluoro-N-(6-((4-(2-hydroxypropan-2-yl)piperidin-1-yl)methyl)-1-(cis-4-(piperidine-1-carbonyl)cyclohexyl)-1H-benzo[d]imidazol-2(3H)-ylidene)benzamide]",< 50
19,"CC(C)(O)C1CCN(Cc2ccc3[nH]/c(=N\C(=O)c4ccc(F)cc4)n([C@H]4CC[C@@H](C(=O)N5[C@@H]6CC[C@H]5CNC6)CC4)c3c2)CC1 [Example 217, (E)-N-(1-(cis-4-(3,8-Fiazabicyclo[3.2.1]octane-8-carbonyl)cyclohexyl)-6-((4-(2-hydroxypropan-2-yl)piperidin-1-yl)methyl)-1H-benzo[d]imidazol-2(3H)-ylidene)-4-fluorobenzamide dihydrochloride]",< 50
20,"CC(C)NC(=O)[C@H]1CC[C@@H](n2/c(=N/C(=O)c3ccc(F)cc3)[nH]c3ccc(N4CCOCC4)cc32)CC1 [Example 218, (E)-4-Fluoro-N-(1-(cis-4-(isopropylcarbamoyl)cyclohexyl)-6-morpholino-1H-benzo[d]imidazol-2(3H)-ylidene)benzamide]",< 50
21,"CC(C)NC(=O)[C@H]1CC[C@@H](n2/c(=N/C(=O)c3ccc(F)cc3)[nH]c3ccc(Cl)cc32)CC1 [Example 219, (E)-N-(6-Chloro-1-(cis-4-(isopropylcarbamoyl)cyclohexyl)-1H-benzo[d]imidazol-2(3H)-ylidene)-4-fluorobenzamide]",< 50
22,"CC(C)NC(=O)[C@H]1CC[C@@H](n2/c(=N/C(=O)c3ccc(F)cc3)[nH]c3ccc(F)cc32)CC1 [Example 220, (E)-4-Fluoro-N-(6-fluoro-1-(cis-4-(isopropylcarbamoyl)cyclohexyl)-1H-benzo[d]imidazol-2(3H)-ylidene)benzamide]",< 50
23,"CC(C)NC(=O)[C@H]1CC[C@@H](n2/c(=N/C(=O)c3ccc(F)cc3)[nH]c3ccc(-n4cncn4)cc32)CC1 [Example 221, (E)-4-Fluoro-N-(1-(cis-4-(isopropylcarbamoyl)cyclohexyl)-6-(1H-1,2,4-triazol-1-yl)-1H-benzo[d]imidazol-2(3H)-ylidene)benzamide]",< 50
24,"CC(C)NC(=O)[C@H]1CC[C@@H](n2/c(=N/C(=O)c3ccc(F)cc3)[nH]c3cnc(N4CCOCC4)cc32)CC1 [Example 222, (E)-4-Fluoro-N-(1-(cis-4-(isopropylcarbamoyl)cyclohexyl)-6-morpholino-1H-imidazo[4,5-c]pyridin-2(3H)-ylidene)benzamide]",< 50
25,"CC(C)NC(=O)[C@H]1CC[C@@H](n2/c(=N/C(=O)c3ccc(F)cc3)[nH]c3cnc(N4CCS(=O)(=O)CC4)cc32)CC1 [Example 223, N-((2E)-6-(1,1-Dioxido-4-thiomorpholinyl)-1-(cis-4-((1-methylethyl)carbamoyl)cyclohexyl)-1,3-dihydro-2H-imidazo[4,5-c]pyridin-2-ylidene)-4-fluorobenzamide]",< 50
26,"CC(C)NC(=O)[C@H]1CC[C@@H](n2/c(=N/C(=O)c3ccc(F)cc3)[nH]c3cnc(N4CCN(S(C)(=O)=O)CC4)cc32)CC1 [Example 224, (E)-4-Fluoro-N-(1-(cis-4-(isopropylcarbamoyl)cyclohexyl)-6-(4-(methylsulfonyl)-piperazin-1-yl)-1H-imidazo[4,5-c]pyridin-2(3H)-ylidene)benzamide]",< 50
